Experimental findings from PubChem BioAssay AID330 (DTP/NCI, 2004) are described below.

Where “and” joins values, the source holds several entries; their conditions need not be identical. Equal values may be shown once. Toxic doses and inconclusive results are not listed.

The experiment deals with P388 leukemia ip, CD2F1 mice, survival T/C. As to the kind of experiment: NCI In Vivo Anticancer Drug Screen. Data for tumor model P388 Leukemia (intraperitoneal) in CD2F1 (CDF1) mice. Conditions: endpoint: median survival time, higher = longer survival. The gist of the method:
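Mice carrying the transplanted tumor received test compound or vehicle. Survival was recorded in each group, and the value is the treated-group measurement divided by that of the vehicle-treated control group.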

The mark [1] stands for this setting: dose: 50.0 mg/kg/injection, schedule: Q01DX009 (ip), vehicle: saline with Tween-80.
Setting [2] is: dose: 100.0 mg/kg/injection, schedule: Q01DX009 (ip), vehicle: saline with Tween-80.
[3] abbreviates: dose: 200.0 mg/kg/injection, schedule: Q01DX009 (ip), vehicle: saline with Tween-80.
[4] abbreviates: dose: 50.0 mg/kg/injection, schedule: Q01DX009 (ip), vehicle: Klucel (hydroxypropylcellulose) (HPC).
The mark [5] stands for this setting: dose: 100.0 mg/kg/injection, schedule: Q01DX009 (ip), vehicle: Klucel (hydroxypropylcellulose) (HPC).
Setting [6] is: dose: 200.0 mg/kg/injection, schedule: Q01DX009 (ip), vehicle: Klucel (hydroxypropylcellulose) (HPC).
The mark [7] stands for this setting: dose: 50.0 mg/kg/injection, schedule: Q01DX009 (ip), vehicle: saline.
Setting [8] is: dose: 100.0 mg/kg/injection, schedule: Q01DX009 (ip), vehicle: saline.
Setting [9] is: dose: 200.0 mg/kg/injection, schedule: Q01DX009 (ip), vehicle: saline.
[10] abbreviates: dose: 60.0 mg/kg/injection, schedule: Q01DX005 (ip), vehicle: saline.
Setting [11] is: dose: 120.0 mg/kg/injection, schedule: Q01DX005 (ip), vehicle: saline.
[12] abbreviates: dose: 12.5 mg/kg/injection, schedule: Q01DX009 (ip), vehicle: Klucel (hydroxypropylcellulose) (HPC).
[13] abbreviates: dose: 25.0 mg/kg/injection, schedule: Q01DX009 (ip), vehicle: Klucel (hydroxypropylcellulose) (HPC).

On to `CC1[C@@H]2C[C@@H]3O[C@@]34[C@H]3CCC5Cc6nc7c(nc6C[C@@]5(C)C3(O)CC(=O)[C@@]24CO[C@]12OC(C)(C)CC2O)CC1CC[C@@H]2C3=C[C@H]4O[C@@]5(O[C@@](C)(CO)C[C@@H]5O)C(C)[C@@]4(O)[C@]3(C)[C@@H](O)CC2[C@]1(C)C7` (stereo partly drawn), for which the T/C is 107 % of control (dose: 12.5 micrograms/kg/injection, schedule: Q01DX009 (ip), vehicle: saline + alcohol); 109 % of control (dose: 25.0 micrograms/kg/injection, schedule: Q01DX009 (ip), vehicle: saline + alcohol); 114 % of control (dose: 50.0 micrograms/kg/injection, schedule: Q01DX009 (ip), vehicle: saline + alcohol); 116 % of control (dose: 100.0 micrograms/kg/injection, schedule: Q01DX009 (ip), vehicle: saline + alcohol).

As to `CC(=O)Oc1ccccc1C#CC(=O)O`, the T/C by setting is: under setting [1], 96 % of control; under setting [2], 90 % of control; under setting [3], 94 % of control.

As for `N#CC1C(=O)NC(=S)NC1CCc1ccccc1` (stereo not drawn), the T/C reads like this: under setting [4], 105 % of control; under setting [5], 99 % of control; under setting [6], 100 % of control.

With `CCOc1ccc2ccc3cccnc3c2n1`, the T/C runs as follows: (dose: 60.0 mg/kg/injection, schedule: Q01DX005 (ip), vehicle: saline with Tween-80) 96 % of control; (dose: 120.0 mg/kg/injection, schedule: Q01DX005 (ip), vehicle: saline with Tween-80) 94 % of control; (dose: 240.0 mg/kg/injection, schedule: Q01DX005 (ip), vehicle: saline with Tween-80) 99 % of control.

`COC(CCCNCCCC(OC)OC)OC`: the T/C runs as follows: (dose: 50.0 mg/kg/injection, schedule: Q01DX005 (ip), vehicle: saline) 102 % of control; (dose: 100.0 mg/kg/injection, schedule: Q01DX005 (ip), vehicle: saline) 103 % of control; (dose: 200.0 mg/kg/injection, schedule: Q01DX005 (ip), vehicle: saline) 103 % of control.

For `O=NN(CCCl)C(=O)Nc1ccc(CCO)cc1`, the T/C (dose: 0.22 mg/kg/injection, schedule: Q01DX009 (ip), vehicle: saline + alcohol) was 118 % of control; the T/C (dose: 0.5 mg/kg/injection, schedule: Q01DX009 (ip), vehicle: saline + alcohol) was 154 % of control; the T/C (dose: 0.75 mg/kg/injection, schedule: Q01DX009 (ip), vehicle: saline + alcohol) was 172 % of control; the T/C (dose: 4.0 mg/kg/injection, schedule: Q01DX009 (ip), vehicle: saline) is 272 % of control; the T/C (dose: 6.0 mg/kg/injection, schedule: Q01DX009 (ip), vehicle: saline) is 272 % of control; the T/C (dose: 9.0 mg/kg/injection, schedule: Q01DX009 (ip), vehicle: saline) is 272 % of control.

Turning to `CCOc1c(N2CCOCC2)c(=O)c1=O`, the T/C was 100 % of control (dose: 100.0 mg/kg/injection, schedule: Q01DX001 (ip), vehicle: saline with Tween-80); 100 % of control (dose: 200.0 mg/kg/injection, schedule: Q01DX001 (ip), vehicle: saline with Tween-80); 90 % of control (dose: 400.0 mg/kg/injection, schedule: Q01DX001 (ip), vehicle: saline with Tween-80).

Turning to `COCCOC`, the T/C is 95 % of control under setting [7]; 98 % of control under setting [8]; 100 % of control under setting [9]; 100 % of control (dose: 400.0 mg/kg/injection, schedule: Q01DX009 (ip), vehicle: saline).

Consider `CC1SC(C)C1=O` (stereo not drawn), for which the T/C under setting [10] is 109 % of control; the T/C under setting [11] is 107 % of control; the T/C (dose: 240.0 mg/kg/injection, schedule: Q01DX005 (ip), vehicle: saline) is 100 % of control.

As to `CC1(/C=C/c2ccccc2)NC(=O)NC1=O` (stereo not drawn), the T/C is 88 % of control under setting [4], 98 % of control under setting [5] and 104 % of control under setting [6].

Regarding `CCCCC(O)c1ccc[n+]([O-])c1` (stereo not drawn), the T/C runs as follows: under setting [7], 94 % of control; under setting [8], 94 % of control; under setting [9], 93 % of control.

For the molecule `CN(C)/N=C/C=C1\N=C(c2ccccc2)OC1=O`, the T/C is 107 % of control (dose: 50.0 mg/kg/injection, schedule: Q01DX005 (ip), vehicle: saline with Tween-80); 104 % of control (dose: 100.0 mg/kg/injection, schedule: Q01DX005 (ip), vehicle: saline with Tween-80); 106 % of control (dose: 200.0 mg/kg/injection, schedule: Q01DX005 (ip), vehicle: saline with Tween-80).

As to `CCCC1CC2=C(C(=O)c3c(OC)cccc3C2=O)C(O)(C(F)(F)F)O1` (stereo not drawn), the T/C reads like this: (dose: 100.0 mg/kg/injection, schedule: Q01DX001 (ip), vehicle: Klucel (hydroxypropylcellulose) (HPC)) 103 % of control; (dose: 200.0 mg/kg/injection, schedule: Q01DX001 (ip), vehicle: Klucel (hydroxypropylcellulose) (HPC)) 109 % of control; (dose: 400.0 mg/kg/injection, schedule: Q01DX001 (ip), vehicle: Klucel (hydroxypropylcellulose) (HPC)) 94 % of control.

Regarding `CCCC(C(CC)CN(C)C)N(C)C` (stereo not drawn), the T/C runs as follows: under setting [1], 101 % of control; under setting [2], 93 % of control.

In the case of `O=C1c2ccc(Cl)cc2NC(O)c2cccn21` (stereo not drawn), the T/C by setting is: (dose: 0.1 mg/kg/injection, schedule: Q01DX005 (ip), vehicle: water) 99 % of control; (dose: 0.2 mg/kg/injection, schedule: Q01DX005 (ip), vehicle: water) 98 % of control; (dose: 0.4 mg/kg/injection, schedule: Q01DX005 (ip), vehicle: water) 98 % of control; (dose: 0.8 mg/kg/injection, schedule: Q01DX005 (ip), vehicle: water) 100 % of control; (dose: 1.6 mg/kg/injection, schedule: Q01DX005 (ip), vehicle: water) 98 % of control; (dose: 5.0 mg/kg/injection, schedule: Q01DX005 (ip), vehicle: distilled water + Tween-80) 95 % of control. Moreover, the T/C by setting is: (dose: 10.0 mg/kg/injection, schedule: Q01DX005 (ip), vehicle: distilled water + Tween-80) 99 % of control; (dose: 20.0 mg/kg/injection, schedule: Q01DX005 (ip), vehicle: distilled water + Tween-80) 100 % of control; (dose: 40.0 mg/kg/injection, schedule: Q01DX005 (ip), vehicle: distilled water + Tween-80) 93 % of control; (dose: 80.0 mg/kg/injection, schedule: Q01DX005 (ip), vehicle: distilled water + Tween-80) 98 % of control.

As to `Cc1cc2cc(C3CCNCC3)oc2cc1C`, the T/C under setting [12] is 100 % of control; the T/C under setting [13] is 100 % of control and 109 % of control; the T/C under setting [4] was 107 % of control and 109 % of control and 119 % of control.

Turning to `COC(CNCC(OC)OC)OC`, the T/C is 96 % of control (dose: 3.13 mg/kg/injection, schedule: Q01DX009 (ip), vehicle: water); 102 % of control (dose: 6.25 mg/kg/injection, schedule: Q01DX009 (ip), vehicle: water); 95 % of control (dose: 12.5 mg/kg/injection, schedule: Q01DX009 (ip), vehicle: water); 102 % of control (dose: 25.0 mg/kg/injection, schedule: Q01DX009 (ip), vehicle: water); 93 % of control (dose: 50.0 mg/kg/injection, schedule: Q01DX009 (ip), vehicle: water); 104 % of control (dose: 100.0 mg/kg/injection, schedule: Q01DX009 (ip), vehicle: water).

Take `C[Si](C)(Cn1ccc(=O)n(C[Si](C)(C)c2ccccc2)c1=O)c1ccccc1`: the T/C is 100 % of control (dose: 81.0 mg/kg/injection, schedule: Q04DX002 (ip), vehicle: saline with Tween-80); 104 % of control (dose: 162.0 mg/kg/injection, schedule: Q04DX002 (ip), vehicle: saline with Tween-80); 106 % of control (dose: 324.0 mg/kg/injection, schedule: Q04DX002 (ip), vehicle: saline with Tween-80).

Consider `Oc1ccc2ccccc2c1/C=N\Sc1ccc(Cl)cc1`, for which the T/C under setting [1] was 90 % of control, the T/C under setting [2] is 91 % of control and the T/C under setting [3] was 96 % of control.

For `O=C/C=C/n1ccccc1=S`, the T/C is 109 % of control (dose: 10.0 mg/kg/injection, schedule: Q01DX001 (ip), vehicle: Klucel (hydroxypropylcellulose) (HPC)) and 102 % of control (dose: 20.0 mg/kg/injection, schedule: Q01DX001 (ip), vehicle: Klucel (hydroxypropylcellulose) (HPC)).

With `CCCCCCCCCCCCCCCCCc1cccc(O)c1`, the T/C by setting is: under setting [12], 114 % of control; under setting [13], 103 % of control; under setting [4], 114 % of control.

Regarding `O=P1(O)OC[C@H]2CCC[C@@H]2O1`, the T/C under setting [10] is 106 % of control and the T/C under setting [11] is 97 % of control.
